Source: patent US11214803B2, “Modulators of YAP1 expression” (Ionis Pharmaceuticals, Inc., priority 2019, dated 2022)
Strand notation (5' to 3'): a small letter for the sugar, then the base; units joined by * are phosphorothioate-linked, units joined directly phosphodiester-linked; [ ] holds rarer units or linkages, { } end groups; capitals alone tell only the bases. e = 2'-O-(2-methoxyethyl) (MOE); k = constrained ethyl (cEt); [5mC] = 5-methylcytosine; d = 2'-deoxy (DNA)

Tests used:
Type in all cases: cell-based
Yap1 mRNA [1] = experiment: Antisense inhibition of human Yap1 in SNU-449 cells by modified oligonucleotides, single dose (Example 5, RTS36584)
Procedure, shortened: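 Values are % of untreated control: Yap1 mRNA by quantitative RT-PCR (RTS36584), normalized to RIBOGREEN total RNA. Oligonucleotides were dosed at 2,000 nM, free uptake, in SNU-449 cells, with roughly 48 h exposure before RNA isolation.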

Yap1 mRNA [2] = experiment: Antisense inhibition of human Yap1 in A-431 cells by cEt gapmers, single dose (Example 3, RTS36584)
Procedure, shortened: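 Values are % untreated control: Yap1 mRNA by quantitative RT-PCR (RTS36584), normalized to total RNA by RiboGreen. Before RNA isolation, 5,000 A-431 cells per well were exposed ~48 h to 2,000 nM 16-mer cEt gapmer, delivered without transfection reagent.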

Yap1 mRNA [3] = experiment: Dose-dependent inhibition of human Yap1 in SNU-449 cells (Example 9, RTS36584); settings: free uptake; for % UTC (Yap1 mRNA): approximately 48 hours; for IC50: linear regression on a log/linear plot
Description: Modified oligonucleotides described in the studies above were tested at various doses in SNU-449 cells. Cultured SNU-449 cells at a density of 10,000 cells per well were treated using free uptake with modified oligonucleotides diluted to concentrations described in the tables below. After approximately 48 hours, Yap1 mRNA levels were measured as previously described using the Human Yap1 primer-probe set RTS36584. Yap1 mRNA levels were normalized to total RNA content, as measured by RIBOGREEN®. Results are presented in the tables below as percent control of the amount of Yap1 mRNA relative to untreated control cells (% UTC). IC50s were calculated using a linear regression on a log/linear plot of the data in excel.

Yap1 mRNA [4] = experiment: Dose-dependent inhibition of human Yap1 in A-431 cells (Example 8, 10,000 cells per well, RTS4814); settings: free uptake, approximately 48 hours, RTS4814; for Yap1 mRNA, % UTC: A-431 cells, 10,000 cells per well; for IC50: A-431 cells, linear regression on log/linear plot
Procedure, shortened: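 Yap1 mRNA, normalized to RIBOGREEN total RNA and expressed as % untreated control, was read with RTS4814 about 48 h after free-uptake oligonucleotide treatment of A-431 cells at 10,000 cells/well. IC50 derived by linear regression of log/linear data.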

[5] = Yap1 mRNA, percent of untreated control, modified oligonucleotides targeting SEQ ID NO: 1 and 2, Table 47
[6] = Table 13, A-431 cells, 5,000 cells per well, free uptake, 2,000 nM modified oligonucleotide, approx. 48 hours, RTS36584, normalized to RIBOGREEN, Yap1 mRNA relative to untreated control cells
[7] = Table 29, Yap1 mRNA as percent of untreated control, 3-10-3 cEt gapmers targeting SEQ ID NO.: 1, and 2
[8] = Table 28, Yap1 mRNA as percent of untreated control, 3-10-3 cEt gapmers targeting SEQ ID NO.: 1, and 2
[9] = Table 26, Yap1 mRNA by 3-10-3 cEt gapmers targeting SEQ ID NO.: 1, and 2, percent of untreated control
[10] = Table 27, Yap1 mRNA by 3-10-3 cEt gapmers targeting SEQ ID NO.: 1, and 2, percent of untreated control

Substance | % UTC (Yap1 mRNA) (Yap1 mRNA [3]; 31.3 nM) [% UTC] | % UTC (Yap1 mRNA) (Yap1 mRNA [3]; 125.0 nM) [% UTC] | % UTC (Yap1 mRNA) (Yap1 mRNA [3]; 500.0 nM) [% UTC] | % UTC (Yap1 mRNA) (Yap1 mRNA [3]; 2000.00 nM) [% UTC] | IC50 (Yap1 mRNA [3]) [nM] | Yap1 mRNA, % UTC (Yap1 mRNA [4]; 31.3 nM) [% UTC] | Yap1 mRNA, % UTC (Yap1 mRNA [4]; 125.0 nM) [% UTC] | Yap1 mRNA, % UTC (Yap1 mRNA [4]; 500.0 nM) [% UTC] | Yap1 mRNA, % UTC (Yap1 mRNA [4]; 2000.00 nM) [% UTC] | IC50 (Yap1 mRNA [4]) [nM] | other results
958497 (kA*kT*kA*dT*dG*dG*dA*dA*dA*dT*dT*dG*dT*k[5mC]*kT*k[5mC]) [Compound 958497] | – | – | – | – | – | – | – | – | – | – | YAP1 (% UT) (Yap1 mRNA [1]; [5]): 20 % UT; YAP1 (% UTC) (Yap1 mRNA [2]; Table 10, A-431 cells, 5,000 cells per well, free uptake, 2,000 nM oligonucleotide, approx. 48 hours, primer probe set RTS36584, Yap1 mRNA normalized to RIBOGREEN, percent of untreated control): 1 % UTC
958500 (kT*k[5mC]*kT*dA*dT*dA*dT*dT*dA*dG*dA*dG*dT*kA*kT*kG) [Compound 958500] | – | – | – | – | – | – | – | – | – | – | YAP1 (% UT) (Yap1 mRNA [1]; [5]): 53 % UT; YAP1 (% UTC) (Yap1 mRNA [2]; [6]): 5 % UTC
958590 (kA*kG*kG*dT*dA*dT*dA*dA*d[5mC]*dT*dG*dG*dG*k[5mC]*kA*kA) [Compound 958590] | – | – | – | – | – | – | – | – | – | – | YAP1 (% UT) (Yap1 mRNA [1]; Table 48, Yap1 mRNA level relative to untreated control, modified oligonucleotides targeting SEQ ID NO.: 1 and 2): 18 % UT; YAP1 (% UTC) (Yap1 mRNA [2]; [6]): 2 % UTC
1009325 (kA*kG*kA*dG*dT*dA*dT*dG*dT*dG*dG*d[5mC]*dA*kA*kT*kA; antisense) [compound 1009325] | 59 | 36 | 16 | 4 | 100 | – | – | – | – | – | –
1009326 (kT*kA*kT*dT*dA*dG*dA*dG*dT*dA*dT*dG*dT*kG*kG*k[5mC]; antisense) [compound 1009326] | 59 | 35 | 14 | 4 | 50 | – | – | – | – | – | –
1074462 (kG*kG*kA*dA*dA*dT*dT*dG*dT*d[5mC]*dT*d[5mC]*dA*kT*kG*k[5mC]; antisense) [compound 1074462] | 90 | 38 | 13 | 3 | 100 | – | – | – | – | – | –
1076399 (antisense kG*kA*kT*dA*dA*d[5mC]*dT*dT*dA*dG*dA*dG*dA*kT*kG*kT) [compound 1076399] | – | – | – | – | – | 60 | 29 | 11 | 6 | 40 | YAP1 (% UTC) (Yap1 mRNA [2]; [7]): 4 % UTC
1076430 (k[5mC]*kG*kT*dT*dA*dT*dA*dA*dG*dA*dT*dG*dT*kG*k[5mC]*kT; antisense) [compound 1076430] | – | – | – | – | – | 42 | 14 | 6 | 4 | < 20 | YAP1 (% UTC) (Yap1 mRNA [2]; [8]): 4 % UTC
1076460 (kT*kA*kA*dT*dA*dT*dA*dG*d[5mC]*d[5mC]*d[5mC]*d[5mC]*dT*kT*k[5mC]*kA; antisense) [compound 1076460] | – | – | – | – | – | 79 | 53 | 25 | 12 | 200 | YAP1 (% UTC) (Yap1 mRNA [2]; [9]): 7 % UTC
1076461 (kG*kA*kT*dT*dA*dA*dT*dA*dT*dA*dG*d[5mC]*d[5mC]*k[5mC]*k[5mC]*kT; antisense) [compound 1076461] | – | – | – | – | – | 65 | 24 | 7 | 3 | 40 | YAP1 (% UTC) (Yap1 mRNA [2]; [10]): 3 % UTC
1076462 (kT*k[5mC]*kA*dG*dA*dA*dG*dG*dA*dT*dA*dT*dG*k[5mC]*kA*kG; antisense) [compound 1076462] | – | – | – | – | – | 61 | 22 | 8 | 5 | 30 | YAP1 (% UTC) (Yap1 mRNA [2]; [8]): 6 % UTC
1076494 (k[5mC]*kT*kA*dA*dT*dT*dG*dA*dA*dG*d[5mC]*dT*dG*kG*k[5mC]*kA; antisense) [compound 1076494] | – | – | – | – | – | 34 | 7 | 3 | 2 | < 20 | YAP1 (% UTC) (Yap1 mRNA [2]; [8]): 3 % UTC
1076524 (kA*kA*kT*dT*dT*dA*dT*dA*dT*d[5mC]*dA*dG*dG*kT*k[5mC]*kA; antisense) [compound 1076524] | – | – | – | – | – | 71 | 30 | 12 | 7 | 100 | YAP1 (% UTC) (Yap1 mRNA [2]; [9]): 6 % UTC
1076525 (kG*kA*kA*dT*dT*dT*dA*dT*dA*dT*d[5mC]*dA*dG*kG*kT*k[5mC]; antisense) [compound 1076525] | – | – | – | – | – | 43 | 14 | 5 | 2 | < 20 | YAP1 (% UTC) (Yap1 mRNA [2]; [10]): 3 % UTC
1076526 (kG*kT*kA*dG*dA*dA*dA*dG*dA*dT*dG*dG*d[5mC]*kT*k[5mC]*kA; antisense) [compound 1076526] | – | – | – | – | – | 44 | 9 | 3 | 2 | < 20 | YAP1 (% UTC) (Yap1 mRNA [2]; [8]): 3 % UTC
1076527 (kG*k[5mC]*kA*d[5mC]*dA*dA*d[5mC]*d[5mC]*dT*dT*dA*d[5mC]*dA*kT*kT*kT; antisense) [compound 1076527] | – | – | – | – | – | 81 | 41 | 16 | 8 | 100 | YAP1 (% UTC) (Yap1 mRNA [2]; [7]): 6 % UTC
1076556 (kG*kT*kA*dT*dA*dG*dG*d[5mC]*dA*dG*dA*dA*dG*k[5mC]*kA*kA; antisense) [compound 1076556] | – | – | – | – | – | 72 | 46 | 19 | 11 | 100 | YAP1 (% UTC) (Yap1 mRNA [2]; [9]): 9 % UTC
1095481 (kT*kG*dA*dG*dG*dT*dA*dT*dA*dA*d[5mC]*dT*kG*eG*kG*e[5mC]) [compound 1095481] | 73 | 47 | 16 | 8 | 100 | – | – | – | – | – | –
1095593 (kT*kG*dA*dG*dG*dT*dA*dT*dA*dA*d[5mC]*eT*eG*eG*kG*k[5mC]; antisense) [compound 1095593] | 73 | 44 | 27 | 10 | 100 | – | – | – | – | – | –
1097247 (kT*kA*kA*dA*dG*dT*dG*dT*dA*dT*dG*dT*d[5mC]*kA*kG*kA; antisense) [compound 1097247] | 58 | 28 | 8 | 2 | 40 | – | – | – | – | – | –
